Target: 11β-HSD1 (Homo sapiens, UniProt P28845)
Test: Inhibition of a microsomal preparation of 11β-HSD1, scintillation proximity assay, microsomes from CHO cells overexpressing human 11β-HSD1 (biological test example 2)
Type: biochemical
Design: expressed in transfected cells; host or cells: CHO cells (microsomes isolated from them)
Details: microsomes from CHO cells overexpressing human 11β-HSD1, SPA, [3H]cortisone, 90 minutes at room temperature; read-out: IC50, inhibitory activity on 11β-HSD 1
Description: All reactions were carried out at room temperature in 96 well clear flexible PET Microbeta plates (PerkinElmer). The assay begins by dispensing 49 μl of substrate solution [50 mM HEPES, pH 7.4, 100 mM KCl, 5 mM NaCl, 2 mM MgCl2, 2 mM NADPH and 160 nM [^3H]cortisone (1 Ci/mmol)] and mixing in 1 μL of the test compounds in dimethyl sulfoxide previously diluted in half-log increments (8 points) starting at 0.1 mM. After a 10 minute pre-incubation, 50 μL of enzyme solution containing microsomes isolated from CHO cells overexpressing human 11β-HSD1 (10-20 μg/ml of total protein) was added, and the plates were incubated for 90 minutes at room temperature. The reaction was stopped by adding 50 μl of the SPA beads suspension containing 10 μM 18β-glycyrrhetinic acid, 5 mg/ml protein A coated YSi SPA beads (GE Healthcare) and 3.3 μg/ml of anti-cortisol antibody (East Coast Biologics) in Superblock buffer (Bio-Rad). The plates were shaken for 120 minutes at room temperature, and the SPA signal corresponding to [^3H]cortisol was measured on a Microbeta plate reader.

Chain of 11β-HSD1 (P28845 whole entry): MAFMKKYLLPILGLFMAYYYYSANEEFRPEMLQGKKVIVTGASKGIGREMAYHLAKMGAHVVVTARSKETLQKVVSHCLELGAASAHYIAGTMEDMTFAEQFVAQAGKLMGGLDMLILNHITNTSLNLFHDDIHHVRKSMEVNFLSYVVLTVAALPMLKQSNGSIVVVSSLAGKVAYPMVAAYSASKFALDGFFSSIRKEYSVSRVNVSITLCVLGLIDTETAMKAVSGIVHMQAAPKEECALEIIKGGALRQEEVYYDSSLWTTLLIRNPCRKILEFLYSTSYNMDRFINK

IC50	SMILES
5.2 nM	C[C@@H](c1ccc(-c2ccn(C3COC3)c(=O)c2)cc1)N1CC[C@](CC(C)(C)O)(c2ccccc2)OC1=O [Example 26, (S)-6-(2-hydroxy-2-methylpropyl)-3-((S)-1-{4-[1-(oxetan-3-yl)-2-oxo-1,2-dihydropyridin-4-yl]phenyl}ethyl)-6-phenyl-1,3-oxazinan-2-one]
27.4 nM	C[C@@H](c1ccc(-c2ccn(C3CNC3)c(=O)c2)cc1)N1CC[C@](CC(C)(C)O)(c2ccccc2)OC1=O [Example 27, 3-((S)-1-{4-[1-(azetidin-3-yl)-2-oxo-1,2-dihydropyridin-4-yl]phenyl}ethyl)-(S)-6-(2-hydroxy-2-methylpropyl)-6-phenyl-1,3-oxazinan-2-one]
8.4 nM	C[C@@H](c1ccc(-c2cnc(N3CCNC3=O)nc2)cc1)N1CC[C@](CC(C)(C)O)(c2ccccc2)OC1=O [Example 28, (S)-6-(2-hydroxy-2-methylpropyl)-3-((S)-1-{4-[2-(2-oxoimidazolidin-1-yl)pyrimidin-5-yl]phenyl}ethyl)-6-phenyl-1,3-oxazinan-2-one]
9.8 nM	C[C@@H](c1ccc(-c2cnc(N3CCN(C)C3=O)nc2)cc1)N1CC[C@](CC(C)(C)O)(c2ccccc2)OC1=O [Example 29, (S)-6-(2-hydroxy-2-methylpropyl)-3-((S)-1-{4-[2-(3-methyl-2-oxoimidazolidin-1-yl)pyrimidin-5-yl]phenyl}ethyl)-6-phenyl-1,3-oxazinan-2-one]
3.2 nM	C[C@@H](c1ccc(-c2cnc(N3CCCC3=O)nc2)cc1)N1CC[C@](CC(C)(C)O)(c2ccccc2)OC1=O [Example 30, (S)-6-(2-hydroxy-2-methylpropyl)-3-((S)-1-{4-[2-(2-oxopyrrolidin-1-yl)pyrimidin-5-yl)phenyl]ethyl}-6-phenyl-1,3-oxazinan-2-one]
0.9 nM	C[C@@H](c1ccc(-c2ccc(N3CCC3)nn2)cc1)N1CC[C@](CC(C)(C)O)(c2ccccc2)OC1=O [Example 31, 3-((S)-1-{4-[6-(azetidin-1-yl)pyridazin-3-yl]phenyl}ethyl)-(S)-6-(2-hydroxy-2-methylpropyl)-6-phenyl-1,3-oxazinan-2-one]
0.7 nM	C[C@@H](c1ccc(-c2cnc(N3CC(F)C3)nc2)cc1)N1CC[C@](CC(C)(C)O)(c2ccccc2)OC1=O [Example 32, 3-((S)-1-{4-[2-(3-fluoroazetidin-1-yl)pyrimidin-5-yl]phenyl}ethyl)-(S)-6-(2-hydroxy-2-methylpropyl)-6-phenyl-1,3-oxazinan-2-one]
1 nM	C[C@@H](c1ccc(-c2cnc(N3CCC3)nc2)cc1)N1CC[C@](CC(C)(C)O)(c2ccccc2)OC1=O [Example 34, 3-((S)-1-{4-[2-(azetidin-1-yl)pyrimidin-5-yl)phenyl]ethyl}-(S)-6-(2-hydroxy-2-methylpropyl)-6-phenyl-1,3-oxazinan-2-one]
2.8 nM	C[C@@H](c1ccc(-c2cnc(N3CC(O)C3)nc2)cc1)N1CC[C@](CC(C)(C)O)(c2ccccc2)OC1=O [Example 35, (S)-6-(2-hydroxy-2-methylpropyl)-3-((S)-1-{4-[2-(3-hydroxyazetidin-1-yl)pyrimidin-5-yl]phenyl}ethyl)-6-phenyl-1,3-oxazinan-2-one]
0.8 nM	C[C@@H](c1ccc(-c2cnc(-n3ccccc3=O)s2)cc1)N1CC[C@](CC(C)(C)O)(c2ccccc2)OC1=O [Example 36, (S)-6-(2-hydroxy-2-methylpropyl)-3-((S)-1-{4-[2-(2-oxopyridin-1 (2H)-yl)thiazol-5-yl]phenyl}ethyl)-6-phenyl-1,3-oxazinan-2-one]
0.5 nM	C[C@@H](c1ccc(-c2csc(-n3ccccc3=O)n2)cc1)N1CC[C@](CC(C)(C)O)(c2ccccc2)OC1=O [Example 37, (S)-6-(2-hydroxy-2-methylpropyl)-3-((S)-1-{4-[2-(2-oxopyridin-1(2H)-yl)thiazol-4-yl]phenyl}ethyl)-6-phenyl-1,3-oxazinan-2-one]
2.3 nM	C[C@@H](c1ccc(-c2ccnc(N3CCOCC3)n2)cc1)N1CC[C@](CC(C)(C)O)(c2ccccc2)OC1=O [Example 38, (S)-6-(2-hydroxy-2-methylpropyl)-3-{(S)-1-[4-(2-morpholinopyrimidin-4-yl)phenyl]ethyl}-6-phenyl-1,3-oxazinan-2-one]
3.7 nM	C[C@@H](c1ccc(-c2cccc(N3CCCCC3=O)n2)cc1)N1CC[C@](CC(C)(C)O)(c2ccccc2)OC1=O [Example 39, (S)-6-(2-hydroxy-2-methylpropyl)-3-((S)-1-{4-[6-(2-oxopiperidin-1-yl)pyridin-2-yl]phenyl}ethyl)-6-phenyl-1,3-oxazinan-2-one]
1.1 nM	C[C@@H](c1ccc(-c2cccc(N3CCOCC3)n2)cc1)N1CC[C@](CC(C)(C)O)(c2ccccc2)OC1=O [Example 40, (S)-6-(2-hydroxy-2-methylpropyl)-3-{(S)-1-[4-(6-morpholinopyridin-2-yl)phenyl]ethyl}-6-phenyl-1,3-oxazinan-2-one]
2.3 nM	C[C@@H](c1ccc(-c2cccc(-n3ccccc3=O)n2)cc1)N1CC[C@](CC(C)(C)O)(c2ccccc2)OC1=O [Example 41, (S)-6-(2-hydroxy-2-methylpropyl)-3-((S)-1-{4-[6-(2-oxopyridin-1 (2H)-yl)pyridin-2-yl]phenyl}ethyl)-6-phenyl-1,3-oxazinan-2-one]
1.5 nM	C[C@@H](c1ccc(-c2ccc(C3(C(N)=O)CC3)nc2)cc1)N1CC[C@](CC(C)(C)O)(c2ccccc2)NC1=O [Example 49, 1-[5-(4-{(S)-1-[(S)-4-(2-Hydroxy-2-methyl-propyl)-2-oxo-4-phenyl-tetrahydro-pyrimidin-1-yl]-ethyl}-phenyl)-pyridin-2-yl]-cyclopropanecarboxylic acid amide]
4.3 nM	C[C@@H](c1ccc(-c2ccc(=O)n(C3COC3)c2)cc1)N1CC[C@](CC(C)(C)O)(c2ccccc2)OC1=O [Example 58, (S)-6-(2-Hydroxy-2-methyl-propyl)-3-{(S)-1-[4-(1-oxetan-3-yl-6-oxo-1,6-dihydro-pyridin-3-yl)-phenyl]-ethyl}-6-phenyl-[1,3]oxazinan-2-one]
6.5 nM	C[C@@H](c1ccc(-c2ccc(C3(C(N)=O)CC3)nc2)cc1)N1CC[C@@](CC2CC2)(CC(C)(C)O)OC1=O [Example 59, 1-[5-(4-{(S)-1-[(S)-6-Cyclopropylmethyl-6-(2-hydroxy-2-methyl-propyl)-2-oxo-[1,3]oxazinan-3-yl]-ethyl}-phenyl)-pyridin-2-yl]-cyclopropanecarboxylic acid amide]

Reference: US9090605B2, “Substituted 5-,6- and 7-membered heterocycles, medicaments containing such compounds, and their use” (Vitae Pharmaceuticals, Inc., priority 2010, dated 2015)
